# Measured values published in patent US8802597B2, “Herbicidal pyrimidines” (E I du Pont de Nemours and Company, priority 2003, dated 2014).
# Legend:
# Assay type in all cases: in vivo
# [1] = tested on: Surinam grass (Brachiaria decumbens); test: Test B pre/postemergence
# Outline: (§1)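 Greenhouse whole-plant test; surfactant-containing non-phytotoxic solvent formulation; pre- and postemergence applications made simultaneously; post plants 2–18 cm, 1- to 4-leaf; visual scoring at 13–15 days on 0–100 scale relative to controls.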
# [2] = tested on: barnyardgrass (Echinochloa crus-galli); test: Test B pre/postemergence
# Outline: as §1
# [3] = tested on: cocklebur (Xanthium strumarium); test: Test B pre/postemergence
# Outline: as §1
# corn (Zea mays) = test: Test B pre/postemergence
# Outline: as §1
# [4] = tested on: crabgrass (Digitaria sanguinalis); test: Test B pre/postemergence
# Outline: as §1
# [5] = tested on: giant foxtail (Setaria faberii); test: Test B pre/postemergence
# Outline: as §1
# [6] = tested on: lambsquarters (Chenopodium album); test: Test B pre/postemergence
# Outline: as §1
# [7] = tested on: morningglory (Ipomoea coccinea); test: Test B pre/postemergence
# Outline: as §1
# [8] = tested on: pigweed (Amaranthus retroflexus); test: Test B pre/postemergence
# Outline: as §1
# [9] = tested on: velvetleaf (Abutilon theophrasti); test: Test B pre/postemergence
# Outline: as §1
# [10] = tested on: wheat (Triticum aestivum); test: Test B pre/postemergence
# Outline: as §1
# [11] = tested on: blackgrass (Alopecurus myosuroides); test: Test B postemergence; details: for Blackgrass plant response rating: 125 g ai/ha, scale 0 to 100 (0 no effect, 100 complete control); for Plant response rating, Blackgrass: 500 g ai/ha, scale 0 to 100
# Outline: as §1
# wild oat (Avena fatua) = test: Test B postemergence; details: for Oat, Wild plant response rating: 125 g ai/ha, scale 0 to 100 (0 no effect, 100 complete control); for Plant response rating, Oat, Wild: 500 g ai/ha, scale 0 to 100
# Outline: as §1
# [12] = tested on: barnyardgrass (Echinochloa crus-galli); test: Test B flooded paddy test; details: Flood, 1000 g ai/ha; scale 0 (no effect) to 100 (complete control)
# Outline: (§2)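 Rice, umbrella sedge, duck salad and barnyardgrass grown to 2-leaf stage under flooded paddy conditions and treated with formulated test chemicals. Kept in greenhouse 13–15 days, then visually rated against untreated controls on a 0–100 scale (0 no effect, 100 complete control).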
# [13] = tested on: duck salad (Heteranthera limosa); test: Test B flooded paddy test; details: Flood, 1000 g ai/ha; scale 0 to 100
# Outline: as §2
# rice (Oryza sativa) = test: Test B flooded paddy test; details: Flood, 1000 g ai/ha; scale 0 to 100
# Outline: as §2
# [14] = tested on: umbrella sedge (Cyperus difformis); test: Test B flooded paddy test; details: Flood, 1000 g ai/ha; scale 0 to 100
# Outline: as §2
# [15] = Postemergence, 125 g ai/ha, scale 0 to 100 (0 no effect, 100 complete control)
# [16] = Postemergence, 500 g ai/ha, scale 0 to 100
# [17] = Preemergence, 125 g ai/ha, scale 0 to 100 (0 no effect, 100 complete control)
# [18] = Preemergence, 500 g ai/ha, scale 0 to 100 (0 no effect, 100 complete control)
compound,measurement,setting,value
CN(C)N=Cc1nc(C2CC2)nc(N)c1Br [Compound 50],Surinam Grass plant response rating,[1]; [15],20
same,"Plant response rating, Surinam Grass",[1]; [16],60
same,"Plant response rating, Surinam Grass",[1]; [17],20
same,"Plant response rating, Surinam Grass",[1]; [18],70
same,Barnyardgrass plant response rating,[2]; [15],10
same,"Plant response rating, Barnyardgrass",[2]; [16],50
same,"Plant response rating, Barnyardgrass",[2]; [17],30
same,"Plant response rating, Barnyardgrass",[2]; [18],50
same,Cocklebur plant response rating,[3]; [15],90
same,"Plant response rating, Cocklebur",[3]; [16],90
same,"Plant response rating, Cocklebur",[3]; [17],80
same,"Plant response rating, Cocklebur",[3]; [18],90
same,Corn plant response rating,corn (Zea mays); [15],0
same,"Plant response rating, Corn",corn (Zea mays); [16],40
same,"Plant response rating, Corn",corn (Zea mays); [17],20
same,"Plant response rating, Corn",corn (Zea mays); [18],20
same,Crabgrass plant response rating,[4]; [15],40
same,"Plant response rating, Crabgrass",[4]; [16],80
same,"Plant response rating, Crabgrass",[4]; [17],50
same,"Plant response rating, Crabgrass",[4]; [18],80
same,"Foxtail, Giant plant response rating",[5]; [15],20
same,"Plant response rating, Foxtail, Giant",[5]; [16],70
same,"Plant response rating, Foxtail, Giant",[5]; [17],10
same,"Plant response rating, Foxtail, Giant",[5]; [18],40
same,Lambsquarters plant response rating,[6]; [15],80
same,"Plant response rating, Lambsquarters",[6]; [16],90
same,"Plant response rating, Lambsquarters",[6]; [17],90
same,"Plant response rating, Lambsquarters",[6]; [18],100
same,Morningglory plant response rating,[7]; [15],90
same,"Plant response rating, Morningglory",[7]; [16],90
same,"Plant response rating, Morningglory",[7]; [17],80
same,"Plant response rating, Morningglory",[7]; [18],90
same,Pigweed plant response rating,[8]; [15],80
same,"Plant response rating, Pigweed",[8]; [16],90
same,"Plant response rating, Pigweed",[8]; [17],70
same,"Plant response rating, Pigweed",[8]; [18],90
same,Velvetleaf plant response rating,[9]; [15],70
same,"Plant response rating, Velvetleaf",[9]; [16],90
same,"Plant response rating, Velvetleaf",[9]; [17],80
same,"Plant response rating, Velvetleaf",[9]; [18],90
same,Wheat plant response rating,[10]; [15],30
same,"Plant response rating, Wheat",[10]; [16],60
same,"Plant response rating, Wheat",[10]; [17],20
same,"Plant response rating, Wheat",[10]; [18],40
same,Blackgrass plant response rating,[11],30
same,"Plant response rating, Blackgrass",[11],50
same,"Oat, Wild plant response rating",wild oat (Avena fatua),30
same,"Plant response rating, Oat, Wild",wild oat (Avena fatua),60
same,"Plant response rating, Barnyardgrass",[12],30
same,"Plant response rating, Ducksalad",[13],40
same,"Plant response rating, Rice",rice (Oryza sativa),30
same,"Plant response rating, Sedge, Umbrella",[14],0
COCc1nc(C2CC2)nc(N)c1Br [Compound 11],Surinam Grass plant response rating,[1]; [15],20
same,"Plant response rating, Surinam Grass",[1]; [16],50
same,"Plant response rating, Surinam Grass",[1]; [17],10
same,Surinam Grass plant response rating,[1]; [18],70
same,Barnyardgrass plant response rating,[2]; [15],20
same,"Plant response rating, Barnyardgrass",[2]; [16],90
same,"Plant response rating, Barnyardgrass",[2]; [17],0
same,Barnyardgrass plant response rating,[2]; [18],10
same,Cocklebur plant response rating,[3]; [15],80
same,"Plant response rating, Cocklebur",[3]; [16],90
same,"Plant response rating, Cocklebur",[3]; [17],80
same,Cocklebur plant response rating,[3]; [18],90
same,Corn plant response rating,corn (Zea mays); [15],0
same,"Plant response rating, Corn",corn (Zea mays); [16],0
same,"Plant response rating, Corn",corn (Zea mays); [17],0
same,Corn plant response rating,corn (Zea mays); [18],0
same,Crabgrass plant response rating,[4]; [15],30
same,"Plant response rating, Crabgrass",[4]; [16],70
same,"Plant response rating, Crabgrass",[4]; [17],30
same,Crabgrass plant response rating,[4]; [18],80
same,"Foxtail, Giant plant response rating",[5]; [15],10
same,"Plant response rating, Foxtail, Giant",[5]; [16],50
same,"Plant response rating, Foxtail, Giant",[5]; [17],10
same,"Foxtail, Giant plant response rating",[5]; [18],70
same,Lambsquarters plant response rating,[6]; [15],90
same,"Plant response rating, Lambsquarters",[6]; [16],100
same,"Plant response rating, Lambsquarters",[6]; [17],100
same,Lambsquarters plant response rating,[6]; [18],100
same,Morningglory plant response rating,[7]; [15],80
same,"Plant response rating, Morningglory",[7]; [16],100
same,"Plant response rating, Morningglory",[7]; [17],80
same,Morningglory plant response rating,[7]; [18],90
same,Pigweed plant response rating,[8]; [15],80
same,"Plant response rating, Pigweed",[8]; [16],90
same,"Plant response rating, Pigweed",[8]; [17],80
same,Pigweed plant response rating,[8]; [18],90
same,Velvetleaf plant response rating,[9]; [15],60
same,"Plant response rating, Velvetleaf",[9]; [16],80
same,"Plant response rating, Velvetleaf",[9]; [17],80
same,Velvetleaf plant response rating,[9]; [18],90
same,Wheat plant response rating,[10]; [15],0
same,"Plant response rating, Wheat",[10]; [16],40
same,"Plant response rating, Wheat",[10]; [17],0
same,Wheat plant response rating,[10]; [18],50
same,Blackgrass plant response rating,[11],20
same,"Plant response rating, Blackgrass",[11],60
same,"Oat, Wild plant response rating",wild oat (Avena fatua),0
same,"Plant response rating, Oat, Wild",wild oat (Avena fatua),10
same,"Plant response rating, Barnyardgrass",[12],0
same,"Plant response rating, Ducksalad",[13],70
same,"Plant response rating, Rice",rice (Oryza sativa),0
same,"Plant response rating, Sedge, Umbrella",[14],20
